According to publication PMC5628898, “Does consumption of red grapefruit juice alter naringenin concentrations in milk produced by breastfeeding mothers?” (PLoS ONE, 2017):
Where two headings read alike, the source gives them in different places.

Key:
[1] = rat, cited from earlier work
[2] = Naringenin concentration in milk of breastfeeding mothers on naringenin-restricted diet, before and after 250 ml red grapefruit juice (HPLC after deconjugation); type: in vivo; conditions: for k el / Cmax / AUC, mean / AUC, median: human milk; for k el: last points; for Cmax / AUC, mean / AUC, median: n 14; for AUC, mean / AUC, median: trapezoidal method
Text: Prior to enrollment, each volunteer was informed about the course and aim of the study, and signed the informed consent. They were also provided with oral and written instructions on the diet that disallowed consumption of any naringenin-containing foods and beverages. The volunteers agreed to follow the diet and not to take any vitamin supplements or any other food supplements for the duration of their participation in the study. They followed the diet for a total of 5 days, refraining from eating foods containing larger quantities of naringenin, such as citrus fruits, citrus fruit juices, citrus fruit pulps, tomatoes and tomato-containing food products, aromatic herbs. For the first two days of the study (pre-exposure) the volunteers collected breast milk samples every 12 hours, each in the amount of four to six ml. On the third day of the study they drank a single 250 ml serving of red grapefruit juice (a 250 ml bottle) in the morning on an empty stomach. In this part of the experiment, the volunteers collected breast milk samples at the following time points: 0 (directly before drinking the juice) and 1, 2, 3, 4, 5, 6, 12, 18, 24, 36 hours post-exposure. Milk samples were collected from full breasts. Milk was collected into chemically pure disposable plastic test tubes.
The samples were frozen by the volunteers at –20°C, regularly collected from the volunteers by the investigator, transported in a laboratory deep freezer, and frozen to –80°C until analysis. Each sample was labelled with the volunteer's initials and with the date and time of sampling. During the study, we remained in constant telephone contact with the volunteers. A commercial 100% grapefruit juice originating from ecological farms in Israel, in 250 ml bottles, were used in the study. The juice was purchased from a local grocery wholesaler. All the bottles were labelled with the same lot number.
Naringenin was extracted according to the method described by Song et al. with minor changes. In brief, an aliquot (0.5 ml) of undiluted human milk was defatted two times with 2-ml of hexane. After the lipid removal, 25 μl of L-Ascorbic acid (2.7 mmol/l in ultrapure water), 25 μl of Na2-ethylenediaminetetraacetic acid (2.2 mmol/l in ultrapure water) and 3 ml of pepsin (40 mg/ml in 0.1 N HCl) were added. The samples were incubated in a ThermoMixer C (Eppendorf AG., Germany) for 15 min at 37°C and at 300 rpm. Then, the pH of the sample was adjusted to 4.5 with 1.0 N NaOH and 3.86 kU of β-glucuronidase with sulfatase contaminant was added. Afterwards the samples were incubated for 45 min at 37°C and at 300 rpm in a ThermoMixer C. After deconjugation the potential metabolites (glucuronides and sulfate derivatives) to aglycones using β-glucuronidase/sulfatase treatment, naringenin was extracted with a 3-ml aliquot of ethyl acetate of tree times, dried under vacuum and resuspended in 200 μl of mobile phase B before analysis.
Naringenin analysis was done on a Shimadzu HPLC system (Kyoto, Japan), equipped with binary pump (LC-20 AD), degasser (DGU-20A3), refrigerated autosampler (SIL-20 AC, set at 8°C), a column oven (CTO-20 AC, 30°C), a diode array detector (SPD-M20A) and a mass spectrometry detector (2010EV). Separations were performed on Kinetex XB-C18 column (100×2.1 mm, 2.6 μm particle size, Phenomenex) at 0.2 ml min^−1 flow rate. The mobile phase consisted of A: 0.4% formic acid in ultrapure water and B: 0.4% formic acid, 0.4% isopropyl alcohol in methanol. The initial conditions of gradient program were set at 98:2 (A/B) followed by a linear gradient to 55:45 (A/B) at 15 min, 20:80 (A/B) at 30 min, 98:2 (A/B) at 35 min and at 40 min, stop. The injection volume was 10 μl. Naringenin was quantified at 287 nm. MS spectra were acquired in positive ion mode over the range of m/z 50–500, both using SCAN and SIM acquisition mode (the set of SIM included 273,25 m/z). […]

[3] = test system: organic anion transporting polypeptide (OATP); set-up: method as in PMID 23794501; conditions: cited from earlier work
[4] = female, human, in vivo, Mean naringenin concentration in human milk

For `O=C1C[C@@H](c2ccc(O)cc2)Oc2cc(O[C@@H]3O[C@H](CO)[C@@H](O)[C@H](O)[C@H]3O)cc(O)c21` [7-glucoside], which “Time at which increase in serum naringenin concentration was observed” value ([1]; in vivo) is on record?
Its value is “three”.

Which results are given for `O=C1C[C@@H](c2ccc(O)cc2)Oc2cc(O)cc(O)c21` [naringenin]?
Range of naringenin concentrations in initial (baseline) milk samples ([2]; female, human, in vivo): 420.86 to 1568.89 nmol/L; k el ([2]; female, human, in vivo, 250 ml, post-exposure segment, n 11, read-out: Kel (elimination constant), mean (converted)): 3.89e-06 s⁻¹; k el ([2]; female, human, in vivo, 250 ml, post-exposure segment, n 11, read-out: Kel (elimination constant), median (converted)): 3.61e-06 s⁻¹; Cmax ([2]; female, human, in vivo, 250 ml, post-exposure segment, read-out: Cmax, mean): 908 nM; Cmax ([2]; female, human, in vivo, 250 ml, post-exposure segment, read-out: Cmax, median): 714 nM; Mean naringenin concentration in human milk ([2]; female, human, in vivo, 4 h): 908.253 nmol/L; Mean naringenin concentration in human milk ([2]; female, human, in vivo, 12 h): 868.960 nmol/L; concentration at 0 h [2, 4]: 674 nM; concentration at 1 h [2, 4]: 773 nM; concentration at 2 h [2, 4]: 651 nM; concentration at 3 h [2, 4]: 649 nM; concentration at 4 h [2, 4]: 908 nM; concentration at 5 h [2, 4]: 704 nM; concentration at 6 h [2, 4]: 650 nM; concentration at 12 h [2, 4]: 869 nM; concentration at 18 h [2, 4]: 772 nM; concentration at 24 h [2, 4]: 728 nM; concentration at 36 h [2, 4]: 702 nM; concentration at -12 h [2, 4]: 702 nM; concentration at -24 h [2, 4]: 844 nM; concentration at -36 h [2, 4]: 910 nM; concentration at -48 h [2, 4]: 823 nM; k el ([2]; female, human, in vivo, pre-exposure segment, n 5, read-out: Kel (elimination constant), mean (converted)): 5.56e-06 s⁻¹; k el ([2]; female, human, in vivo, pre-exposure segment, n 5, read-out: Kel (elimination constant), median (converted)): 5.56e-06 s⁻¹; Cmax ([2]; female, human, in vivo, pre-exposure segment, read-out: Cmax, mean): 910 nM; Cmax ([2]; female, human, in vivo, pre-exposure segment, read-out: Cmax, median): 762 nM; Cmax ([2]; post-exposure segment, read-out: Cmax, mean): 908 nM; AUC, mean ([2]; post-exposure, 0 h to 36 h): 27419 (nmol/l)*h; AUC, median ([2]; post-exposure, 0 h to 36 h): 23715 (nmol/l)*h; AUC, mean ([2]; pre-exposure, -36 h to 0 h): 27455 (nmol/l)*h; AUC, median ([2]; pre-exposure, -36 h to 0 h): 26515 (nmol/l)*h; Inhibition of OATP [3]: potent inhibitor; Time at which increase in serum naringenin concentration was observed ([1]; after feeding the compound): three

With `C[C@@H]1O[C@@H](O[C@H]2[C@H](Oc3cc(O)c4c(c3)O[C@H](c3ccc(O)cc3)CC4=O)O[C@H](CO)[C@@H](O)[C@@H]2O)[C@H](O)[C@H](O)[C@H]1O` [naringin, 4’, 5,7-trihydroxyflavanone-7-rhamnoglucoside] as the compound, how does the “Time at which increase in serum naringenin concentration was observed” value ([1]; after feeding the compound) read?
The value was “ten”.
